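A five-concentration, 48-hour dose response in 96-well plates underlies each endpoint, interpolated linearly between surrounding concentrations. The concentration for full growth arrest is given as TGI.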 A value given as a limit tells only on which side of the number the result lay.

The results in this text go back to PubChem BioAssay (NCI).

Test systems include MDA-MB-435; OVCAR-4 ovarian; SK-MEL-5 melanoma; EKVX NSCLC; PC-3 prostate; UO-31 renal; SF-539 CNS; NCI-H226 lung; HCC-2998 colon; ACHN renal; DU-145 prostate; SR leukemia; MOLT-4 leukemia; SW-620 colon; A498 renal; COLO 205 colon; M14 melanoma; SNB-75 CNS; SK-MEL-2 melanoma.
What all share (assay): NCI tumour cell line growth inhibition, 48 h

Take `CCn1c(=O)c2c3cc(OC(C)=O)ccc3oc2c2ccc(OC(C)=O)cc21`: the TGI in the test with MDA-MB-435 was > 100 µM; with OVCAR-4 ovarian, > 100 µM; in the test with SK-MEL-5 melanoma, > 100 µM; in the test with EKVX NSCLC, 70.3 µM; in the test with PC-3 prostate, > 100 µM; in the test on UO-31 renal, 83 µM. Further, the TGI is 94.3 µM in the test on SF-539 CNS; > 100 µM in the test with NCI-H226 lung; 58.2 µM in the test with HCC-2998 colon; 85.9 µM with ACHN renal; > 100 µM with DU-145 prostate; > 100 µM in the test on SR leukemia. For the same compound, the TGI was > 100 µM with MOLT-4 leukemia; > 100 µM in the test with SW-620 colon; 83 µM in the test on A498 renal; 55.6 µM in the test on COLO 205 colon; > 100 µM in the test on M14 melanoma; 45 µM in the test on SNB-75 CNS.

Take `Cc1cc(=O)c2ccccc2n1CCCCCCCCCCn1c(C)cc(=O)c2ccccc21`: the TGI is 29.7 µM in the test with MDA-MB-435; 44.1 µM in the test with OVCAR-4 ovarian; 6.27 µM with SK-MEL-5 melanoma; 33.9 µM with EKVX NSCLC; > 100 µM with PC-3 prostate; 25.6 µM in the test on UO-31 renal. For the same compound, the TGI in the test on SF-539 CNS was 44.3 µM; in the test with NCI-H226 lung it was 46.1 µM; with HCC-2998 colon it was 24.1 µM; in the test on ACHN renal, > 100 µM; in the test with DU-145 prostate it was 41.9 µM; in the test with SR leukemia, 34 µM. Moreover, the TGI with MOLT-4 leukemia is 21.7 µM; with SW-620 colon, 56 µM; in the test on A498 renal, 28.9 µM; in the test with COLO 205 colon, 51.9 µM; with M14 melanoma, > 100 µM; in the test with SNB-75 CNS, 87 µM.

In the case of `C/C(=C1\C(=O)C(c2ccccc2)N(c2ccccc2)C1=O)c1ccc(Cl)cc1` (stereo not drawn), the TGI in the test on MDA-MB-435 is 32.8 µM; in the test with OVCAR-4 ovarian, 42.8 µM; in the test with SK-MEL-5 melanoma, 28.3 µM; with EKVX NSCLC it was 79.6 µM; in the test with SK-MEL-2 melanoma it was 45.4 µM; with PC-3 prostate it was 28.2 µM. The TGI stood at 45.8 µM in the test on UO-31 renal; 48.9 µM in the test with SF-539 CNS; 43 µM in the test on NCI-H226 lung; 96.1 µM in the test with HCC-2998 colon; 45 µM in the test with ACHN renal; 34 µM with DU-145 prostate. Also, the TGI in the test with SR leukemia is 53.2 µM; with MOLT-4 leukemia it was > 100 µM; in the test with SW-620 colon, 72.3 µM; in the test on A498 renal, 33.1 µM; in the test on COLO 205 colon it was 32.8 µM; in the test on M14 melanoma, 42.3 µM.

Regarding `COc1cc(C(=O)OCCn2[nH]c(-c3ccc(Cl)cc3)nc2=S)cc(OC)c1OC`, the TGI in the test with MDA-MB-435, in the test on OVCAR-4 ovarian, in the test on SK-MEL-5 melanoma, with EKVX NSCLC, in the test on SK-MEL-2 melanoma and with PC-3 prostate was > 100 µM throughout. The TGI in the test on UO-31 renal was 24.2 µM; with SF-539 CNS, > 100 µM; with NCI-H226 lung it was > 100 µM; in the test with HCC-2998 colon, > 100 µM; with ACHN renal, > 100 µM; in the test on DU-145 prostate it was > 100 µM. For the same compound, the TGI in the test with SR leukemia, with MOLT-4 leukemia, in the test on SW-620 colon, in the test on A498 renal, in the test with COLO 205 colon and in the test with M14 melanoma was > 100 µM in each case.

Take `Cc1nn(-c2ccccc2)c2nc3ccc(Cl)cc3c(-c3ccccc3)c12`: the TGI with MDA-MB-435, in the test with OVCAR-4 ovarian, in the test on SK-MEL-5 melanoma, in the test on EKVX NSCLC, in the test on SK-MEL-2 melanoma and in the test with PC-3 prostate was > 100 µM each time. In addition, the TGI in the test with UO-31 renal, in the test with NCI-H226 lung, in the test with HCC-2998 colon, in the test with ACHN renal, in the test with DU-145 prostate and in the test with SR leukemia was > 100 µM each time. Also, the TGI in the test on MOLT-4 leukemia, with SW-620 colon, with COLO 205 colon, in the test with M14 melanoma and with SNB-75 CNS was > 100 µM throughout.

Consider `NC(N)=NS(=O)(=O)c1ccc(NC(=O)c2ccc3nc4ccccc4c(N)c3c2)cc1`, for which the TGI with MDA-MB-435, with OVCAR-4 ovarian, in the test on SK-MEL-5 melanoma, in the test on EKVX NSCLC, in the test with SK-MEL-2 melanoma and in the test with PC-3 prostate was > 100 µM in each case. Besides, the TGI in the test on UO-31 renal, in the test with SF-539 CNS, in the test on NCI-H226 lung, with HCC-2998 colon, in the test with ACHN renal and in the test with DU-145 prostate was > 100 µM each time. Moreover, the TGI in the test on SR leukemia, with MOLT-4 leukemia, in the test on SW-620 colon, in the test on COLO 205 colon, in the test on M14 melanoma and in the test with SNB-75 CNS was > 100 µM in each case.

For `CCOC(=O)c1cn2c(ccc3sc4ccccc4c(=O)c32)n1`, the TGI with MDA-MB-435, in the test on SK-MEL-5 melanoma, in the test on EKVX NSCLC, in the test on PC-3 prostate, with UO-31 renal and in the test on SF-539 CNS was > 100 µM in each case. Moreover, the TGI in the test with NCI-H226 lung, in the test with HCC-2998 colon, in the test on ACHN renal, in the test on DU-145 prostate, in the test with SR leukemia and with MOLT-4 leukemia was > 100 µM in each case. Moreover, the TGI in the test with SW-620 colon, in the test on A498 renal, in the test with COLO 205 colon and with SNB-75 CNS was > 100 µM throughout.
